Laboratory results from publication PMC7803973, “Structural basis of malaria parasite phenylalanine tRNA-synthetase inhibition by bicyclic azetidines” (Nature Communications, 2021).
Where “and” joins values, the source holds several entries; their conditions need not be identical. Equal values may be shown once.

How the values were obtained:
PfcFRS = target: T1, PfcFRS (Plasmodium falciparum, UniProt Q8I246); assay: Surface plasmon resonance binding; settings: Pf; SPR, 1:1 binding model; read-out: Kd (cFRS)
T1 sequence (Q8I246 1-575): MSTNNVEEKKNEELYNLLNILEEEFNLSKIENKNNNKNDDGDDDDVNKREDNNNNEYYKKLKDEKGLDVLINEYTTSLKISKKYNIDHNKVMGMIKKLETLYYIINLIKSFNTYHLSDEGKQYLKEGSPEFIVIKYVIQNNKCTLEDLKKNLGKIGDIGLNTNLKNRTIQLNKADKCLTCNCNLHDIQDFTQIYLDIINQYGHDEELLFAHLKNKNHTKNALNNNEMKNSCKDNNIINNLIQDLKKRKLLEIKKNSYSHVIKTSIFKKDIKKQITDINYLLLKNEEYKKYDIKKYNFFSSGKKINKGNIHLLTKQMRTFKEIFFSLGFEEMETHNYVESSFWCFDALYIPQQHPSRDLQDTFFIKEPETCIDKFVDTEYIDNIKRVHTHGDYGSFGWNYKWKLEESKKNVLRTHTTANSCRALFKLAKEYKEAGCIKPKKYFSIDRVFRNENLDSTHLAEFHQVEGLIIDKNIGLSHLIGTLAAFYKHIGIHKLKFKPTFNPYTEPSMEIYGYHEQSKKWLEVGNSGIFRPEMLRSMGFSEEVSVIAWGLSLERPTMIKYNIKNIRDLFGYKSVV
T1 sequence (Q8IIW2 1-623 partner): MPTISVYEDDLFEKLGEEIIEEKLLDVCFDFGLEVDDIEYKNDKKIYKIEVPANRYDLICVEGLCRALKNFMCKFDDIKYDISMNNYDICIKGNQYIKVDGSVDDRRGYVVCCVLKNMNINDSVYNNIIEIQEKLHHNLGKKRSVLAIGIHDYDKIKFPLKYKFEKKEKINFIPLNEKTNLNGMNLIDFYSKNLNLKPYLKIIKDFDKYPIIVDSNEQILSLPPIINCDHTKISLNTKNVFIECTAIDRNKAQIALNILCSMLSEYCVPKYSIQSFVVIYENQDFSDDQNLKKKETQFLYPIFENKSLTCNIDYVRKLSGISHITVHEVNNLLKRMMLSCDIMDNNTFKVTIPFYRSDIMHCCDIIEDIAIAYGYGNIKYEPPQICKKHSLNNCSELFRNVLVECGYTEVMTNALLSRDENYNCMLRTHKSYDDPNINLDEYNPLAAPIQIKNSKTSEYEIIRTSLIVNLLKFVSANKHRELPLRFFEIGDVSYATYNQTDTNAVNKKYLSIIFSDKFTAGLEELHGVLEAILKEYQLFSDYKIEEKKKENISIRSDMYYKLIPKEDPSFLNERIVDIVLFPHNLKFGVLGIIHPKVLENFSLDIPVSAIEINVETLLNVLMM
Description: (§1) These were carried out on a Biacore T200 instrument (GE Healthcare) at 25 °C. The binding experiments were performed in buffer 10 mM phosphate buffered saline (PBS), pH 7.4, containing 5% dimethyl sulfoxide (DMSO). The flow system was primed with the running buffer before the initiation of the experiment. Both PfcFRS and HscFRS were immobilized to Sensor Chip CM5 by standard amine coupling chemistry using N-hydroxysuccinimide (NHS) and ethyl(dimethylaminopropyl) carbodiimide (EDC) to an immobilization level of approximately 1500 RU. The binding experiments were carried out in a single cycle kinetics mode. BRD1389 was serially diluted in running buffer and injected at a flow rate of 60 μl min^−1 across both surfaces for 60 s and dissociations were set up for 120 s. The data analysis was done using Biacore evaluation T200 Evaluation software (GE Healthcare) and after applying the solvent correction, the data was fitted into the 1:1 binding evaluation method to determine the equilibrium dissociation constants (Kd).

HscFRS = HscFRS (Homo sapiens, UniProt Q9Y285); assay: Surface plasmon resonance binding; settings: Hs; SPR, 1:1 binding model; read-out: Kd (cFRS)
Sequence of HscFRS (Q9NSD9 whole entry): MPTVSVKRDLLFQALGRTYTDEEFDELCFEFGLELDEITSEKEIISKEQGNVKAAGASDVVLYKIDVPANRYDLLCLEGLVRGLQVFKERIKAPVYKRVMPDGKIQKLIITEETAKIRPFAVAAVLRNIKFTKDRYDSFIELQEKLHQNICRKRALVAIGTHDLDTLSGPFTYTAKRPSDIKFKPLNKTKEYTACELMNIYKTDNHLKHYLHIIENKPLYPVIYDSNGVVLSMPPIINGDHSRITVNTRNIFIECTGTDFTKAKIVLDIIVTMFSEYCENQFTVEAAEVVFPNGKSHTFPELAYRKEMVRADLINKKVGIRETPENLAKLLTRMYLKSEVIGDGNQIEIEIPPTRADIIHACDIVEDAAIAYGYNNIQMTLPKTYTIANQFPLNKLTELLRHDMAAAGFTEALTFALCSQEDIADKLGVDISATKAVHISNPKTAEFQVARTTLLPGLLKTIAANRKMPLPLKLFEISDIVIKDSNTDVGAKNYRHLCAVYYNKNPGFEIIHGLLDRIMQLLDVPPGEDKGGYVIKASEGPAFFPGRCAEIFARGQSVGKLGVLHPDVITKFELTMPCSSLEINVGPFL
Sequence of HscFRS (Q9Y285 whole entry): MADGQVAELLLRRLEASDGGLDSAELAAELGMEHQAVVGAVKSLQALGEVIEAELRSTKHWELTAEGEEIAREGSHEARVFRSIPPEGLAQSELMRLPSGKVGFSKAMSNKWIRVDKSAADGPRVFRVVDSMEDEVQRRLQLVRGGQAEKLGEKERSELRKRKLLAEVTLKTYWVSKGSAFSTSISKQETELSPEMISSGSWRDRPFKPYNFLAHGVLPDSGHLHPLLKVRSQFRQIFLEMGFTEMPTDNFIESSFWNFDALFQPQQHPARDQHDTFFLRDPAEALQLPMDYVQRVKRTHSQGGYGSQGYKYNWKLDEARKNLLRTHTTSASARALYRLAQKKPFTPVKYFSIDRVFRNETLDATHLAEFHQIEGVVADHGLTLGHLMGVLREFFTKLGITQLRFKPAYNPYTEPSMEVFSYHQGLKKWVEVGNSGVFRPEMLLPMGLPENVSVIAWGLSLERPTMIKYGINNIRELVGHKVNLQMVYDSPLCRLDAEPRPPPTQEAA
Description: as §1

[1] = system: Plasmodium falciparum strain 3D7; assay: Parasite growth inhibition (drug susceptibility test, pLDH readout); type: cell-based
Description: The cultivation of P. falciparum was conducted according to Trager’s method with some modification. Precisely, parasites were kept in culture flasks with RPMI1640 medium supplemented with 10% human plasma and 2% fresh human erythrocytes and incubated at 37 °C with the gas condition of 5% CO2 and 5% O2. The parasitemia (percentage of infected erythrocytes to total erythrocytes) were kept within 0.25–10%. Culture medium was replaced, and fresh erythrocytes were supplied every 2–3 days. Drug susceptibility test was conducted according to Desjardins’s method[18] with some modification. […] […] The plates were kept at 37 °C with the gas condition of 5% CO2 and 5% O2 for 72 h and then parasite growth was quantified with Makler’s method to detect plasmdoial lactate dehydrogenase[19] with some modification. Precisely, culture plates were kept in freezer overnight and then thawed at 37 °C to disrupt the erythrocytes and parasite cells. In the new 96-well titer plates, 100 μl of enzyme reaction solution (110 mM Li-lactate, 0.5 mM acetylpyridine-adenine dinucleotide, 50 mM Tris (pH 7.5), 10 mM EDTA, 50 mM KCl, and 15 g l^−1 PEG6000) and 20 µl of freeze-thaw culture were mixed in each well and then kept at room temperature for 30 min. The detection solution was prepared by mixing equal volume of 2 mg ml^−1 nitro blue tetrazolium and 0.1 mg ml^−1 phenazine ethosulfate and 20 µl of the solution was added to each well.

COC[C@@H]1[C@H](c2ccc(C#Cc3ccccc3)cc2)[C@@H]2CN(C(=O)Nc3ccc(OC4CC4)cc3)C[C@@H](O)[C@@H](O)CN12 [BRD1389]
Kd (PfcFRS): 4 nM | Kd (HscFRS): 16000 nM | % Parasite Growth ([1]; 3D7, 0.000976562 ug/mL): 93.5% | % Parasite Growth ([1]; 3D7, 0.00195312 ug/mL): 94.1% | % Parasite Growth ([1]; 3D7, 0.00390625 ug/mL): 94.0% | % Parasite Growth ([1]; 3D7, 0.0078125 ug/mL): 47.5% | % Parasite Growth ([1]; 3D7, 0.015625 ug/mL): 14.7% | % Parasite Growth ([1]; 3D7, 0.03125 ug/mL): 8.9% | % Parasite Growth ([1]; 3D7, 0.0625 ug/mL): 2.0% | % Parasite Growth ([1]; 3D7, 0.125 ug/mL): 1.8% | % Parasite Growth ([1]; 3D7, 0.25 ug/mL): 1.5% | % Parasite Growth ([1]; 3D7, 0.5 ug/mL): 1.7% | % Parasite Growth ([1]; 3D7, 1 ug/mL): 2.2% | IC50 ([1]; Plasmodium falciparum, 3D7): 0.00753 µg/mL and 13.3 nM | EC50 ([1]; Plasmodium falciparum, 3D7, 72 h): 13 nM
